Reference: ChEMBL document CHEMBL5579802, “Identification of 3,4-dihydropyrimido[4,5-d]pyrimidin-2(1H)-one scaffolds as potent Lck inhibitors as anti-cancer agents” (Bioorg Med Chem Lett, 2024)

Assays:
COLO 201 [1] = assay: Induction of apoptosis in human COLO201 cells assessed as necrotic cells at 2 uM by Annexin V-FITC and PI staining based flow cytometry analysis (reference value: 0.7%); assay type: functional
[2] = molecular target: T1, Tyrosine-protein kinase Lck (Homo sapiens, UniProt P06239); assay: Inhibition of recombinant human LCK (64 to 509 residues) incubated for 60 mins in presence of ATP by HTRF method
T1 sequence (P06239 whole entry, the tested form may be a part): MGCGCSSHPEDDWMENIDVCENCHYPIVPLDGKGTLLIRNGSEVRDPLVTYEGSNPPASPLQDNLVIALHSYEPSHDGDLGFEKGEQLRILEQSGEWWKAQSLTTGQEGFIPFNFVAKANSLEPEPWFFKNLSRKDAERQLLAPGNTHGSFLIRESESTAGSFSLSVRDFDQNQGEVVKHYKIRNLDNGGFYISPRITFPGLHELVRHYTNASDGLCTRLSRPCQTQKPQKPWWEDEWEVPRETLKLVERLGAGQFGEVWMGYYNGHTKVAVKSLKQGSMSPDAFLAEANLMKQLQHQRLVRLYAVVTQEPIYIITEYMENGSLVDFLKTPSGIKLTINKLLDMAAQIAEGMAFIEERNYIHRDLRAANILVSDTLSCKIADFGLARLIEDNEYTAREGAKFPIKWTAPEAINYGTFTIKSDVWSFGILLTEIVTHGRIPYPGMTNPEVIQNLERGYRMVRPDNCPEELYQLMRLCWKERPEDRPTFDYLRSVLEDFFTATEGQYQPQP

COLO 201 [3] = assay: Induction of apoptosis in human COLO201 cells assessed as early apoptotic cells at 10 uM by Annexin V-FITC and PI staining based flow cytometry analysis (reference value: 3.2%); assay type: functional
COLO 201 [4] = assay: Induction of apoptosis in human COLO201 cells assessed as necrotic cells at 10 uM by Annexin V-FITC and PI staining based flow cytometry analysis (reference value: 0.7%); assay type: functional
COLO 201 [5] = assay: Induction of apoptosis in human COLO201 cells assessed as early apoptotic cells at 0.2 uM by Annexin V-FITC and PI staining based flow cytometry analysis (reference value: 3.2%); assay type: functional
COLO 201 [6] = assay: Induction of apoptosis in human COLO201 cells assessed as late apoptotic cells at 0.2 uM by Annexin V-FITC and PI staining based flow cytometry analysis (reference value: 6.2%); assay type: functional
COLO 201 [7] = assay: Induction of apoptosis in human COLO201 cells assessed as late apoptotic cells at 1 uM by Annexin V-FITC and PI staining based flow cytometry analysis (reference value: 6.2%); assay type: functional
COLO 201 [8] = assay: Induction of apoptosis in human COLO201 cells assessed as viable cells at 1 uM by Annexin V-FITC and PI staining based flow cytometry analysis (reference value: 90%); assay type: functional; conditions: read-out: Activity
COLO 201 [9] = assay: Induction of apoptosis in human COLO201 cells assessed as early apoptotic cells at 2 uM by Annexin V-FITC and PI staining based flow cytometry analysis (reference value: 3.2%); assay type: functional
COLO 201 [10] = assay: Induction of apoptosis in human COLO201 cells assessed as necrotic cells at 1 uM by Annexin V-FITC and PI staining based flow cytometry analysis (reference value: 0.7%); assay type: functional
[11] = molecular target: T1, Tyrosine-protein kinase Lck; assay: Inhibition of LCK (unknown origin)
COLO 201 [12] = assay: Induction of apoptosis in human COLO201 cells assessed as late apoptotic cells at 10 uM by Annexin V-FITC and PI staining based flow cytometry analysis (reference value: 6.2%); assay type: functional
COLO 201 [13] = assay: Induction of apoptosis in human COLO201 cells assessed as necrotic cells at 0.2 uM by Annexin V-FITC and PI staining based flow cytometry analysis (reference value: 0.7%); assay type: functional
COLO 201 [14] = assay: Induction of apoptosis in human COLO201 cells assessed as viable cells at 2 uM by Annexin V-FITC and PI staining based flow cytometry analysis (reference value: 90%); assay type: functional; conditions: read-out: Activity
COLO 201 [15] = assay: Induction of apoptosis in human COLO201 cells assessed as viable cells at 0.2 uM by Annexin V-FITC and PI staining based flow cytometry analysis ( Rvb = 90%); assay type: functional; conditions: read-out: Activity
COLO 201 [16] = assay: Induction of apoptosis in human COLO201 cells assessed as late apoptotic cells at 2 uM by Annexin V-FITC and PI staining based flow cytometry analysis (reference value: 6.2%); assay type: functional
COLO 201 [17] = assay: Induction of apoptosis in human COLO201 cells assessed as viable cells at 10 uM by Annexin V-FITC and PI staining based flow cytometry analysis (reference value: 90%); assay type: functional; conditions: read-out: Activity
COLO 201 [18] = assay: Induction of apoptosis in human COLO201 cells assessed as early apoptotic cells at 1 uM by Annexin V-FITC and PI staining based flow cytometry analysis (reference value: 3.2%); assay type: functional
EKVX = assay: Antiproliferative activity against human EKVX cells; assay type: functional
COLO 205 = assay: Antiproliferative activity against human COLO 205 cells; assay type: functional
SNB-19 = assay: Antiproliferative activity against human SNB-19 cells; assay type: functional
HCC 2998 = assay: Antiproliferative activity against human HCC 2998 cells; assay type: functional
IGROV-1 = assay: Antiproliferative activity against human IGROV-1 cells; assay type: functional
Malme-3M = assay: Antiproliferative activity against human Malme-3M cells; assay type: functional
OVCAR-5 = assay: Antiproliferative activity against human OVCAR-5 cells; assay type: functional
M14 = assay: Antiproliferative activity against human M14 cells; assay type: functional
COLO 201 [19] = assay: Antiproliferative activity against human COLO201 cells; assay type: functional
CAKI-1 = assay: Antiproliferative activity against human CAKI-1 cells; assay type: functional
SW-620 = assay: Antiproliferative activity against human SW620 cells; assay type: functional
SF-268 = assay: Antiproliferative activity against human SF-268 cells; assay type: functional
OVCAR-8 = assay: Antiproliferative activity against human OVCAR-8 cells; assay type: functional
HCT-116 = assay: Antiproliferative activity against human HCT-116 cells; assay type: functional
NCI-H226 = assay: Antiproliferative activity against human NCI-H226 cells; assay type: functional
OVCAR-3 = assay: Antiproliferative activity against human OVCAR-3 cells; assay type: functional
MDA-MB-231 = assay: Antiproliferative activity against human MDA-MB-231 cells; assay type: functional
HOP-92 = assay: Antiproliferative activity against human HOP-92 cells; assay type: functional
SK-MEL-2 = assay: Antiproliferative activity against human SK-MEL-2 cells; assay type: functional
[20] = Antiproliferative activity against human […] cells; assay type: functional
SK-MEL-28 = assay: Antiproliferative activity against human SK-MEL-28 cells; assay type: functional
TK-10 = assay: Antiproliferative activity against human TK-10 cells; assay type: functional
MOLT-4 = assay: Antiproliferative activity against human MOLT-4 cells; assay type: functional
SK-OV-3 = assay: Antiproliferative activity against human SK-OV-3 cells; assay type: functional
RXF 393 = assay: Antiproliferative activity against human RXF 393 cells; assay type: functional
PC-3 = assay: Antiproliferative activity against human PC-3 cells; assay type: functional
KM12 = assay: Antiproliferative activity against human KM12 cells; assay type: functional
U-251 = assay: Antiproliferative activity against human U-251 cells; assay type: functional
LOX IMVI = assay: Antiproliferative activity against human LOX IMVI cells; assay type: functional
NCI/ADR-RES = assay: Antiproliferative activity against human NCI/ADR-RES cells; assay type: functional
SN12C = assay: Antiproliferative activity against human SN12C cells; assay type: functional
DU-145 = assay: Antiproliferative activity against human DU-145 cells; assay type: functional
HL-60(TB) = assay: Antiproliferative activity against human HL-60(TB) cells; assay type: functional
HCT-15 = assay: Antiproliferative activity against human HCT-15 cells; assay type: functional
HT-29 = assay: Antiproliferative activity against human HT-29 cells; assay type: functional
786-0 = assay: Antiproliferative activity against human 786-0 cells; assay type: functional
NCI-H522 = assay: Antiproliferative activity against human NCI-H522 cells; assay type: functional
SNB-75 = assay: Antiproliferative activity against human SNB-75 cells; assay type: functional
MCF7 = assay: Antiproliferative activity against human MCF7 cells; assay type: functional
ACHN = assay: Antiproliferative activity against human ACHN cells; assay type: functional
SR = assay: Antiproliferative activity against human SR cells; assay type: functional
Hs-578T = assay: Antiproliferative activity against human Hs-578T cells; assay type: functional
A549 = assay: Antiproliferative activity against human A549 cells; assay type: functional
MDA-MB-435 = assay: Antiproliferative activity against human MDA-MB-435 cells; assay type: functional
K562 = assay: Antiproliferative activity against human K562 cells; assay type: functional
UO-31 = assay: Antiproliferative activity against human UO-31 cells; assay type: functional
HOP-62 = assay: Antiproliferative activity against human HOP-62 cells; assay type: functional
NCI-H460 = assay: Antiproliferative activity against human NCI-H460 cells; assay type: functional
T47D = assay: Antiproliferative activity against human T47D cells; assay type: functional
COLO 201 [21] = assay: Induction of apoptosis in human COLO201 cells assessed as increase in cleaved PARP level by Western blotting analysis; assay type: functional, cell-based; conditions: dose 1-10 µM
UACC-257 = assay: Antiproliferative activity against human UACC-257 cells; assay type: functional
MDA-MB-468 = assay: Antiproliferative activity against human MDA-MB-468 cells; assay type: functional
BT-549 = assay: Antiproliferative activity against human BT-549 cells; assay type: functional
NCI-H23 = assay: Antiproliferative activity against human NCI-H23 cells; assay type: functional
A498 = assay: Antiproliferative activity against human A498 cells; assay type: functional

COc1cc(-c2nn(C3CCC(N4CCN(C(C)=O)CC4)CC3)c3ncnc(N)c23)ccc1NC(=O)c1cc2ccccc2n1C (stereo unspecified)
Activity (COLO 201 [1]): 1.8%
IC50 [2]: 0.147 µM
Activity (COLO 201 [3]): 16.9%
Activity (COLO 201 [4]): 3.8%
Activity (COLO 201 [5]): 2.5%
Activity (COLO 201 [6]): 4.3%
Activity (COLO 201 [7]): 6.6%
viability at 1 µM (COLO 201 [8]): 88.7%
Activity (COLO 201 [9]): 7.1%
Activity (COLO 201 [10]): 1.2%
IC50 [11]: 0.147 µM
Activity (COLO 201 [12]): 52.7%
Activity (COLO 201 [13]): 0.6%
viability at 2 µM (COLO 201 [14]): 82.6%
viability at 0.2 µM (COLO 201 [15]): 92.6%
Activity (COLO 201 [16]): 8.5%
viability at 10 µM (COLO 201 [17]): 26.6%
Activity (COLO 201 [18]): 3.4%

Cc1ccc(Nc2ncc3c(n2)N(C)C(=O)N(c2cc(NC(=O)c4ccc([N+](=O)[O-])c(OCC(C)C)c4)ccc2C)C3)cn1
Activity (COLO 201 [1]): 5.2%
GI50 (EKVX): 0.98 µM
GI50 (COLO 205): 0.24 µM
Activity (COLO 201 [3]): 13.3%
GI50 (SNB-19): 3.92 µM
GI50 (HCC 2998): 1.1 µM
GI50 (IGROV-1): 0.21 µM
GI50 (Malme-3M): 0.2 µM
Activity (COLO 201 [4]): 7.4%
GI50 (OVCAR-5): 0.54 µM
GI50 (M14): 0.16 µM
GI50 (COLO 201 [19]): 1.26 µM
GI50 (CAKI-1): 0.06 µM
GI50 (SW-620): 0.52 µM
GI50 (SF-268): 0.49 µM
GI50 (OVCAR-8): 0.41 µM
GI50 (HCT-116): 0.33 µM
Activity (COLO 201 [5]): 5.6%
Activity (COLO 201 [6]): 11.7%
GI50 (NCI-H226): 0.41 µM
viability at 1 µM (COLO 201 [8]): 61.3%
GI50 (OVCAR-3): 1.09 µM
GI50 (MDA-MB-231): 0.13 µM
GI50 (HOP-92): 0.09 µM
GI50 (SK-MEL-2): 0.092 µM
GI50 [20]: 0.48 µM
GI50 (SK-MEL-28): 0.24 µM
GI50 (TK-10): 0.39 µM
GI50 (MOLT-4): 0.43 µM
GI50 (SK-OV-3): 0.19 µM
GI50 (RXF 393): 0.094 µM
GI50 (PC-3): 0.79 µM
GI50 (KM12): 0.74 µM
GI50 (U-251): 0.55 µM
GI50 (LOX IMVI): 0.2 µM
GI50 (NCI/ADR-RES): 3.53 µM
GI50 (SN12C): 0.17 µM
GI50 (DU-145): 0.4 µM
GI50 (HL-60(TB)): 0.23 µM
GI50 (HCT-15): 0.41 µM
Activity (COLO 201 [9]): 17%
GI50 (HT-29): 0.41 µM
Activity (COLO 201 [10]): 4.6%
GI50 (786-0): 0.45 µM
GI50 (NCI-H522): 0.3 µM
Activity (COLO 201 [13]): 1.8%
GI50 (SNB-75): 0.29 µM
GI50 (MCF7): 8.33 µM
GI50 (ACHN): 0.15 µM
GI50 (SR): 0.18 µM
GI50 (Hs-578T): 0.28 µM
GI50 (A549): 0.43 µM
GI50 (MDA-MB-435): 0.25 µM
viability at 2 µM (COLO 201 [14]): 57.1%
GI50 (K562): 0.01 µM
viability at 0.2 µM (COLO 201 [15]): 80.9%
GI50 (UO-31): 0.27 µM
GI50 (HOP-62): 1.13 µM
viability at 10 µM (COLO 201 [17]): 54.4%
Activity (COLO 201 [18]): 13.9%
GI50 (NCI-H460): 0.43 µM
GI50 (T47D): 0.7 µM
Activity (COLO 201 [21]): Dose-Dependent Effect
GI50 (UACC-257): 0.67 µM
GI50 (MDA-MB-468): 0.38 µM
GI50 (BT-549): 1.37 µM
GI50 (NCI-H23): 0.499 µM
GI50 (A498): 0.22 µM
